Experiment [1] has as its target T1, HIV-1 reverse transcriptase (HIV RT) (HIV-1 M:B_HXB2R, UniProt P04585).
T1 construct: gene gag-pol; purchased from Worthington; mature RT cut from Gag-Pol polyprotein; with p51 RT
The experiment can be described thus: DRaCALA direct binding, protein titration. Conditions: labelled compound (32P), 500 nM; K+ buffer pH 7.9, room temperature; concentration given as cdiGMP monomers; octaplex only, cdiGMP M/D does not bind; primer-template site.

Experiment [2] has as its target T1, HIV-1 reverse transcriptase (HIV RT). The experiment can be described thus: primer extension, […] min. Type of experiment: biochemical. Conditions: 80 mM KCl, 6 mM MgCl2, 100 µM dNTPs, pH 8; G8 prepared in K+; concentration given as cdiGMP monomers; octaplex only, M/D shows no inhibition.

On to cdiGMP G8, for which binding in experiment [1] was put at a Kd of 0.7 ± 0.1 µM. In addition, in experiment [2], inhibition was half-maximal at 28 ± 7 µM (IC50).

Values taken from publication PMC3538687, “Detection of Cyclic Diguanylate G-Octaplex Assembly and Interaction with Proteins” (PLoS ONE, 2013).
